Test results as given in patent publication US20240124491A1, “METHODS AND COMPOUNDS FOR TREATING FRIEDREICH'S ATAXIA” (Design Therapeutics, Inc., priority 2021, published 2024).

System: human FXN
Assay: EC50 assay: FXN mRNA expression by qRT-PCR in GM15850 cells after 48 hrs compound treatment
Format: cell-based
Conditions: Homo sapiens, 48 hrs incubation, hFXN expression normalized to hGAPDH (qRT-PCR), read-out: EC50 WT (nM, 48 hr)
Protocol: Cell culture: Cells were cultured in RPMI1640 medium+15% FBS. Cells were maintained at a density between 2e5/mL and 1e6/mL. Cells were centrifuged, resuspended in fresh medium, counted and plated at 150,000 cells per well in 100 uL in a non-coated, flat bottom tissue culture plate.
Compound treatment: 10 mM stock solution of FA GeneTAC was diluted 1:10 in DMSO followed by a 1:100 dilution in growth medium. Working solution was then further diluted to 10× desired final concentration of 150 nM. Compound was then diluted at a 1:3 ratio into growth medium containing 0.01% DMSO. 5-point, 3-fold dose response curve was generated. 11 μL of 1OX compound was added to wells containing 100 μL cell suspension of GM15850. 11 μL growth medium containing 0.01% DMSO was added to all wells not treated with FA GeneTAC. Cells were allowed to incubate for 48 hrs prior to cell lysis using guanidine isothiocyanate solution.
RNA isolation: Total RNA was isolated and purified in 384-well column filter plates using chaotropic salt.
qRT-PCR: qRT-PCR reactions were assembled using AgPath-ID reagents (Thermo Fisher) using 6 uL mastermix and 4 μL RNA. qRT-PCR TaqMan primer probe sets against human FXN (Assay ID Hs01075496_m1) and human GAPDH (Assay ID Hs00266705_g1) were used to measure the intended targets. qRT-PCR was run on the ThermoFisher QuantStudio 6 PRO instrument using the manufacturer's recommended cycling conditions.
Data analysis: qPCR data was analyzed using Thermo Fisher Design and Analysis software. Data was exported to Excel and hFXN expression was normalized to hGAPDH expression
A<100 nM; B is 100 nM to 500 nM; C>500 nM.

Row | SMILES | EC50 [nM]
1 | Cc1cc(F)cc(C)c1Oc1ccc(C(C)(C)O)cc1-c1cn(C)c(=O)c2[nH]c(C(=O)NC3CCN(CCOCCOCCOCCOCCOCCOCCOCCOCCNC(=O)CCNC(=O)c4nc(NC(=O)CCNC(=O)c5cc(NC(=O)c6nc(NC(=O)CCNC(=O)c7cc(NC(=O)c8nccn8C)cn7C)cn6C)cn5C)cn4C)CC3)cc12 [Compound 47] | < 100
2 | CC(=O)Nc1c(F)cc(C(=O)NC2CCN(CCOCCOCCOCCOCCOCCOCCOCCOCCNC(=O)CCNC(=O)c3nc(NC(=O)CCNC(=O)c4cc(NC(=O)c5nc(NC(=O)CCNC(=O)c6cc(NC(=O)c7nccn7C)cn6C)cn5C)cn4C)cn3C)CC2)cc1O[C@@H](C)c1ccccc1 [Compound 48] | > 500
3 | Cc1cc(F)cc(C)c1Oc1ccc(C(C)(C)O)cc1-c1cn(C)c(=O)c2[nH]c(C(=O)NCCOCCOCCOCCOCCOCCOCCOCCOCCNC(=O)CCNC(=O)c3nc(NC(=O)CCNC(=O)c4cc(NC(=O)c5nc(NC(=O)CCNC(=O)c6cc(NC(=O)c7nccn7C)cn6C)cn5C)cn4C)cn3C)cc12 [Compound 50] | < 100
4 | Cc1sc2c(c1C)C(c1ccc(Cl)cc1)=N[C@@H](CC(=O)N1CCC(N3CCN(CCOCCOCCOCCOCCOCCOCCNC(=O)CCNC(=O)c4nc(NC(=O)CCNC(=O)c5cc(NC(=O)c6nc(NC(=O)CCNC(=O)c7cc(NC(=O)c8nccn8C)cn7C)cn6C)cn5C)cn4C)CC3)CC1)c1nnc(C)n1-2 [Compound 51] | 100 to 500
5 | COc1ccc2c(c1)C(c1ccc(Cl)cc1)=N[C@@H](CC(=O)N1CCC(N3CCN(CCOCCOCCOCCOCCOCCOCCNC(=O)CCNC(=O)c4nc(NC(=O)CCNC(=O)c5cc(NC(=O)c6nc(NC(=O)CCNC(=O)c7cc(NC(=O)c8nccn8C)cn7C)cn6C)cn5C)cn4C)CC3)CC1)c1nnc(C)n1-2 [Compound 52] | > 500
6 | Cc1sc2c(c1C)C(c1ccc(Cl)cc1)=N[C@@H](CC(=O)N1CCN(C3CCN(CCOCCOCCOCCOCCOCCOCCNC(=O)CCNC(=O)c4nc(NC(=O)CCNC(=O)c5cc(NC(=O)c6nc(NC(=O)CCNC(=O)c7cc(NC(=O)c8nccn8C)cn7C)cn6C)cn5C)cn4C)CC3)CC1)c1nnc(C)n1-2 [Compound 53] | 100 to 500
7 | COc1ccc2c(c1)C(c1ccc(Cl)cc1)=N[C@@H](CC(=O)N1CCN(C3CCN(CCOCCOCCOCCOCCOCCOCCNC(=O)CCNC(=O)c4nc(NC(=O)CCNC(=O)c5cc(NC(=O)c6nc(NC(=O)CCNC(=O)c7cc(NC(=O)c8nccn8C)cn7C)cn6C)cn5C)cn4C)CC3)CC1)c1nnc(C)n1-2 [Compound 54] | > 500
8 | Cc1sc2c(c1C)C(c1ccc(Cl)cc1)=N[C@@H](CC(=O)N1CCC(CN3CCN(CCOCCOCCOCCOCCOCCOCCOCCNC(=O)CCNC(=O)c4nc(NC(=O)CCNC(=O)c5cc(NC(=O)c6nc(NC(=O)CCNC(=O)c7cc(NC(=O)c8nccn8C)cn7C)cn6C)cn5C)cn4C)CC3)CC1)c1nnc(C)n1-2 [Compound 55] | 100 to 500
9 | COc1ccc2c(c1)C(c1ccc(Cl)cc1)=N[C@@H](CC(=O)N1CCC(CN3CCN(CCOCCOCCOCCOCCOCCOCCOCCNC(=O)CCNC(=O)c4nc(NC(=O)CCNC(=O)c5cc(NC(=O)c6nc(NC(=O)CCNC(=O)c7cc(NC(=O)c8nccn8C)cn7C)cn6C)cn5C)cn4C)CC3)CC1)c1nnc(C)n1-2 [Compound 56] | 100 to 500
10 | Cc1sc2c(c1C)C(c1ccc(Cl)cc1)=N[C@@H](CC(=O)N1CCC(CN3CCN(CCOCCOCCOCCOCCOCCOCCNC(=O)CCNC(=O)c4nc(NC(=O)CCNC(=O)C5=CC(NC(=O)c6nc(NC(=O)CCNC(=O)c7cc(NC(=O)c8nccn8C)cn7C)cn6C)CN5C)cn4C)CC3)CC1)c1nnc(C)n1-2 (stereo partly shown) [Compound 57] | 100 to 500
11 | COCCOCCOCCOCCOCCOCCOCCOCCOCCOCCOCCOCCOCCOCCOCCOCCC(=O)N(CC#CC#Cc1ccc(NC(=O)C[C@@H]2N=C(c3ccc(Cl)cc3)c3c(sc(C)c3C)-n3c(C)nnc32)cc1)CCOCCOCCOCCOCCOCCNC(=O)CCNC(=O)c1nc(NC(=O)CCNC(=O)c2cc(NC(=O)c3nc(NC(=O)CCNC(=O)c4cc(NC(=O)c5nccn5C)cn4C)cn3C)cn2C)cn1C [Compound 58] | 100 to 500
12 | Cc1sc2c(c1C)C(c1ccc(Cl)cc1)=N[C@@H](CC(=O)N1CCC(C#CC#CC3CCN(CCOCCOCCOCCOCCNC(=O)CCNC(=O)c4nc(NC(=O)CCNC(=O)c5cc(NC(=O)c6nc(NC(=O)CCNC(=O)c7cc(NC(=O)c8nccn8C)cn7C)cn6C)cn5C)cn4C)CC3)CC1)c1nnc(C)n1-2 [Compound 60] | < 100
13 | COc1ccc2c(c1)C(c1ccc(Cl)cc1)=N[C@@H](CC(=O)N1CCC(C#CC#CC3CCN(CCOCCOCCOCCOCCNC(=O)CCNC(=O)c4nc(NC(=O)CCNC(=O)c5cc(NC(=O)c6nc(NC(=O)CCNC(=O)c7cc(NC(=O)c8nccn8C)cn7C)cn6C)cn5C)cn4C)CC3)CC1)c1nnc(C)n1-2 [Compound 61] | < 100
14 | Cc1sc2c(c1C)C(c1ccc(Cl)cc1)=N[C@@H](CC(=O)N1CC(N3CCN(CCOCCOCCOCCOCCOCCOCCNC(=O)CCNC(=O)c4nc(NC(=O)CCNC(=O)c5cc(NC(=O)c6nc(NC(=O)CCNC(=O)c7cc(NC(=O)c8nccn8C)cn7C)cn6C)cn5C)cn4C)CC3)C1)c1nnc(C)n1-2 [Compound 62] | 100 to 500
15 | Cc1sc2c(c1C)C(c1ccc(Cl)cc1)=N[C@@H](CC(=O)N1CCN(C3CN(CCOCCOCCOCCOCCOCCOCCNC(=O)CCNC(=O)c4nc(NC(=O)CCNC(=O)c5cc(NC(=O)c6nc(NC(=O)CCNC(=O)c7cc(NC(=O)c8nccn8C)cn7C)cn6C)cn5C)cn4C)C3)CC1)c1nnc(C)n1-2 [Compound 63] | 100 to 500
16 | Cc1sc2c(c1C)C(c1ccc(Cl)cc1)=N[C@@H](CC(=O)N1CCN(C3CCN(CCOCCOCCOCCOCCC(=O)NCCCN(CCCNC(=O)CCNC(=O)c4nc(NC(=O)CCNC(=O)c5cc(NC(=O)c6nc(NC(=O)CCNC(=O)c7cc(NC(=O)c8nccn8C)cn7C)cn6C)cn5C)cn4C)CC(F)(F)F)CC3)CC1)c1nnc(C)n1-2 [Compound 68] | < 100
17 | Cc1sc2c(c1C)C(c1ccc(Cl)cc1)=N[C@@H](CC(=O)N1CCC(N3CCN(CCOCCOCCOCCOCCC(=O)NCCCN(CCCNC(=O)CCNC(=O)c4nc(NC(=O)CCNC(=O)c5cc(NC(=O)c6nc(NC(=O)CCNC(=O)c7cc(NC(=O)c8nccn8C)cn7C)cn6C)cn5C)cn4C)CC(F)(F)F)CC3)CC1)c1nnc(C)n1-2 [Compound 69] | < 100
18 | Cc1sc2c(c1C)C(c1ccc(Cl)cc1)=N[C@@H](CC(=O)NC1CCN(CCOCCOCCOCCOCCC(=O)NC3(C(=O)NCCOCCOCCOCCNC(=O)CCNC(=O)c4nc(NC(=O)CCNC(=O)c5cc(NC(=O)c6nc(NC(=O)CCNC(=O)c7cc(NC(=O)c8nccn8C)cn7C)cn6C)cn5C)cn4C)CCNCC3)CC1)c1nnc(C)n1-2 [Compound 70] | 100 to 500
19 | Cc1sc2c(c1C)C(c1ccc(Cl)cc1)=N[C@@H](CC(=O)NC1CCN(CCOCCOCCOCCC(=O)NC3(C(=O)NCCOCCOCCOCCOCCNC(=O)CCNC(=O)c4nc(NC(=O)CCNC(=O)c5cc(NC(=O)c6nc(NC(=O)CCNC(=O)c7cc(NC(=O)c8nccn8C)cn7C)cn6C)cn5C)cn4C)CCNCC3)CC1)c1nnc(C)n1-2 [Compound 71] | 100 to 500
20 | Cc1sc2c(c1C)C(c1ccc(Cl)cc1)=N[C@@H](CC(=O)NC1CCN(CCOCCOCCOCCC(=O)NC3(C(=O)NCCOCCOCCOCCOCCNC(=O)CCNC(=O)c4nc(NC(=O)CCNC(=O)c5cc(NC(=O)c6nc(NC(=O)CCNC(=O)c7cc(NC(=O)c8nccn8C)cn7C)cn6C)cn5C)cn4C)CCN(CC(F)(F)F)CC3)CC1)c1nnc(C)n1-2 [Compound 73] | 100 to 500
21 | COCCOCCOCCOCCOCCOCCOCCOCCOCCOCCOCCOCCOCCOCCOCCOCCC(=O)N1CCC(NC(=O)CCOCCOCCOCCN2CCC(NC(=O)C[C@@H]3N=C(c4ccc(Cl)cc4)c4c(sc(C)c4C)-n4c(C)nnc43)CC2)(C(=O)NCCOCCOCCOCCOCCNC(=O)CCNC(=O)c2nc(NC(=O)CCNC(=O)c3cc(NC(=O)c4nc(NC(=O)CCNC(=O)c5cc(NC(=O)c6nccn6C)cn5C)cn4C)cn3C)cn2C)CC1 [Compound 74] | > 500
22 | COCCOCCOCCOCCOCCOCCOCCOCCOCCOCCOCCC(=O)N1CCC(NC(=O)CCOCCOCCOCCN2CCC(NC(=O)C[C@@H]3N=C(c4ccc(Cl)cc4)c4c(sc(C)c4C)-n4c(C)nnc43)CC2)(C(=O)NCCOCCOCCOCCOCCNC(=O)CCNC(=O)c2nc(NC(=O)CCNC(=O)c3cc(NC(=O)c4nc(NC(=O)CCNC(=O)c5cc(NC(=O)c6nccn6C)cn5C)cn4C)cn3C)cn2C)CC1 [Compound 76] | 100 to 500
23 | Cc1sc2c(c1C)C(c1ccc(Cl)cc1)=N[C@@H](CC(=O)N1CCC(C#CC#CCNCCOCCOCCOCCOCCOCCOCCNC(=O)CCNC(=O)c3nc(NC(=O)CCNC(=O)c4cc(NC(=O)c5nc(NC(=O)CCNC(=O)c6cc(NC(=O)c7nccn7C)cn6C)cn5C)cn4C)cn3C)CC1)c1nnc(C)n1-2 [Compound 78] | < 100
24 | Cc1sc2c(c1C)C(c1ccc(Cl)cc1)=N[C@@H](CC(=O)N1CCC(C#CC#CCNCCOCCOCCOCCOCCNC(=O)CCNC(=O)c3nc(NC(=O)CCNC(=O)c4cc(NC(=O)c5nc(NC(=O)CCNC(=O)c6cc(NC(=O)c7nccn7C)cn6C)cn5C)cn4C)cn3C)CC1)c1nnc(C)n1-2 [Compound 79] | < 100
25 | Cc1noc2c1-c1ccccc1C(c1ccc(Cl)cc1)=N[C@H]2CC(=O)Nc1ccc(C#CC#CCNC(=O)COCCOCCOCCOCCOCCNC(=O)CCNC(=O)c2nc(NC(=O)CCNC(=O)c3cc(NC(=O)c4nc(NC(=O)CCNC(=O)c5cc(NC(=O)c6nccn6C)cn5C)cn4C)cn3C)cn2C)cc1 [Compound 84] | > 500
